The values that follow come from PMC11187542, “Identification of fragments targeting SMYD3 using highly sensitive kinetic and multiplexed biosensor-based screening” (RSC Medicinal Chemistry, 2024).

Test [1] deals with T1, SMYD3 in complex with active site-specific tight-binding inhibitor EPZ031686 (Homo sapiens, UniProt Q9H7B4).
T1 construct: Full length recombinant SMYD3 was produced as previously reported; made in house; host or cells: E. coli BL21(DE3), in some cases Rosetta 2
T1 sequence (Q9H7B4 1-428): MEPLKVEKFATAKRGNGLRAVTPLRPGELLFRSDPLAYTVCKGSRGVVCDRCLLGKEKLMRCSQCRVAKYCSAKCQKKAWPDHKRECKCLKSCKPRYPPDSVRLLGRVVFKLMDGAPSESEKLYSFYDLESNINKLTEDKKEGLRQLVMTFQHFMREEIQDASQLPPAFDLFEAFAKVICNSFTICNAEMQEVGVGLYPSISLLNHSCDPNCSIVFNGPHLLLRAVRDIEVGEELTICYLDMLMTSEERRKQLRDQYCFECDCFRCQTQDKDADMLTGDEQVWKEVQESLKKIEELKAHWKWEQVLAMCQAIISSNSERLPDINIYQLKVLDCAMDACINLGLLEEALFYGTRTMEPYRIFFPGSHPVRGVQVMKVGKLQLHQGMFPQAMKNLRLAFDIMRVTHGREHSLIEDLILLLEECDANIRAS
Kind of test: GCI biosensor kinetic screening, active site blocked SMYD3 surface. The settings on record: for LE (ligand efficiency): LE = −RT ln(KD)/n, blocked SMYD3 surface; for Kd / kd / kon at 250 µM: initial kinetic screening, fragment 250 μM, 15 °C; for Kd: SMYD3 blocked by EPZ031686; for kd / kon at 250 µM: SMYD3 blocked by EPZ031686, 1:1 model; for kon at 250 µM: read-out: ka. The source says: (§1) A multiplexed screening assay was set up with three different SMYD3 surfaces and a blank reference surface in flow channels 1–4 (FC1–FC4) (Fig. 2a), as described previously.[5] The apo SMYD3 surface detected fragments interacting anywhere on SMYD3, while a SMYD3 surface blocked by active site-specific tight-binding inhibitor EPZ031686 detected compounds binding elsewhere. The denatured surface served as a reference, detecting fragments binding to unfolded proteins, also potentially present to a significant degree in the other two surfaces.
(§2) The library was screened using the approach described in Fig. 1, i.e. injection of fragments at 250 μM for increasing durations of time in a single cycle, using a flow rate of 100 μL min^−1, data acquisition set to 40 Hz and with an association time of 5 s and dissociation of 20 s. Each fragment was addressed to all four channels and interactions with the native and blocked surfaces compared. The experimental conditions were chosen to ensure that the assay could reliably characterize the fast and transient interactions expected from typical fragments.
(§3) The kinetic screening of 1056 compounds was successfully completed in 72 hours. […] Hits were identified with full kinetic information using dissociation phases.
(§4) All interaction kinetic experiments were conducted with a GCI–flow-based biosensor (WAVEdelta, Creoptix AG/Malvern Panalytical) and PCH WAVEchip (Creoptix AG/Malvern Panalytical) sensor chips. The sensor chips were conditioned using injections of borate buffer (10 mM sodium tetraborate pH 8.5, 1 M NaCl). The running buffer composition, if not otherwise stated, was TBS buffer (50 mM Tris, 150 mM NaCl, 0.5 mM TCEP, 0.05% Tween 20, 1% DMSO, pH 8). SMYD3 was diluted to the desired concentration in 10 mM bis-Tris (pH 7.0) and amine coupled to the sensor surface of the PCH sensor chip. The sensor chip was functionalized at 25 °C by immobilising SMYD3 with EDC and NHS (Xantec) using an injection time of 420 s and a flow rate of 10 μL min^−1. The immobilisation levels ranged from 5000 pg mm^−2 to 18 500 pg mm^−2 surface mass to enable analysis of fragments spanning a broad range of affinities. After immobilization, the surface was deactivated with a running buffer containing 50 mM Tris for 420 s. The GCI data referencing and analysis were performed using WAVEcontrol V4.5 (Creoptix AG).
(§5) Kinetic measurements with controls and fragments were performed at 15 °C. Analysis of controls and follow up of hits was done using the multi cycle kinetic (MCK) injection of a concentration series for the same time, with a two-fold serial dilution starting at 250 μM for each compound. Solvent correction was performed ranging from 0.5–1.8% DMSO. Blank samples of the running buffer, 1× TBS (50 mM Tris, 150 mM NaCl, 0.5 mM TCEP, 0.05% Tween 20, 1% DMSO, pH 8), were injected during the measurements every fifth cycle. The experimental design illustrated in Fig. 1 was used for the screening against all four surfaces. The sensorgrams were adjusted to account for solvent correction and blank subtraction. Kinetic fitting was performed with the Direct Kinetics engine of WAVEcontrol software V4.5 (Creoptix AG) with a suitable fitting model.

The target of a further test is T2, SMYD3 (Homo sapiens, UniProt Q9H7B4).
T2 construct: Full length recombinant SMYD3 was produced as previously reported; made in house; host or cells: E. coli BL21(DE3), in some cases Rosetta 2
T2 sequence (Q9H7B4 1-428): T1 sequence (Q9H7B4 1-428)
Kind of test: X-ray crystallography of SMYD3-fragment complexes (co-crystallization and soaking). On the set-up: key to XRC: success or failure of crystallization in complex with SMYD3: The success (+) or failure (−) of crystallization in complex with SMYD3; The success (+) or failure (−) of crystallization in complex with SMYD3. The settings on record: 5 mM fragment co-crystallization or soaking. From the text: To identify binding sites and binding modes, the fragment hits (Table 1) were used in both co-crystallization and soaking experiments to obtain SMYD3-fragment co-crystals for X-ray crystallographic analyses. Diffraction data of 1.6–1.9 Å maximum resolution were obtained for four fragments (Fig. 5). For data collection and refinement statistics, see ESI, ^† Table S1.
Four new sites were thus identified.
Polder (F0–Fc) maps (Fig. 5, right) were generated to establish whether the observed electron density features were more likely to represent background noise or to belong to bound fragments. These omit maps are generated upon exclusion of the ligand and surrounding solvent from the model, which aids in visualizing weak densities. […] For fragments FL01507, FL08580 and FL08619, a comparison of the maps obtained after refinement with a bound fragment with maps obtained upon their replacement with either glycerol or acetate, which were present in the crystallization or cryo-protectant solutions, respectively, was required.
8 mg mL^−1 of SMYD3 in storage buffer (TBS buffer containing 2 mM DTT) was pre-incubated for 4–8 hours with 5 mM of a respective fragment hit compound and 10% (v/v) DMSO. Subsequently, 1 μL of this solution was mixed with an equal volume of reservoir solution (100 mM Tris, 100 mM magnesium acetate, 15–17% PEG3350, pH 8.25–8.75) to create the drops for co-crystallization by hanging drop vapour diffusion performed at 20 °C. Needle-like co-crystals nucleated within 12 h of equilibration against the reservoir. In addition, crystals of SMYD3 obtained in ligand-free crystallization setups were soaked with fragment solution prior to freezing. All crystals were cryo-protected via brief immersion in reservoir solution supplemented with 10% (v/v) glycerol.
Diffraction data were collected at beamline ID23-1 of the European Synchrotron Radiation Facility (ESRF, Grenoble, France). Data were indexed, auto-processed, scaled and merged on-site using the implemented data processing routines and software. Fragment-associated electron density features were identified upon data analysis with the Pipedream system (version 1.4.0, Global Phasing Ltd, Cambridge, United Kingdom), which includes data processing with autoPROC,[14] molecular replacement with Phaser,[15] structure refinement with BUSTER version 2.10.4 (Global Phasing Ltd, Cambridge, United Kingdom), automated ligand fitting with Rhofit (Global Phasing Ltd, Cambridge, United Kingdom) and BUSTER post-refinement.[16] Refinement was done with Phenix,[17] and model building with Coot.[18] (F0–Fc) difference density maps for models, from which ligand atoms and surrounding water molecules were removed, were generated using Phenix.

The next test concerns the target T3, SMYD3 (apo, native) (Homo sapiens, UniProt Q9H7B4).
T3 construct: Full length recombinant SMYD3 was produced as previously reported; made in house; host or cells: E. coli BL21(DE3), in some cases Rosetta 2
T3 sequence (Q9H7B4 1-428): T1 sequence (Q9H7B4 1-428)
Kind of test: GCI biosensor kinetic screening, apo SMYD3 surface. The format is binding. The settings on record: for LE (ligand efficiency): LE = −RT ln(KD)/n; for Kd / kd / kon at 250 µM: initial kinetic screening, fragment 250 μM, 15 °C; for kd / kon at 250 µM: 1:1 model; for kon at 250 µM: read-out: ka.
From the text: as §1
After preparing the sensor surface and immobilising SMYD3, the functionality of the surface was assessed via analysis of interactions with the co-factor product S-adenosyl-homocysteine (SAH). It was used as a control in all experiments, confirming that sensor surfaces were intact. This was done using the novel multiple injection-based experimental design (Fig. 1) at 25 μM, i.e. in a weak binder mode (Fig. 2b).
as §2, §3, §4, §5

For the compound `Oc1ccc2ccncc2c1` [FL01657], in test [1], the “LE (ligand efficiency)” value is recorded as 0.53 (kcal^-1 mol^-1)/HA, the Kd (usually the equilibrium constant for the complex coming apart) turned out to be 56 µM, the kd turned out to be 1.09 s⁻¹ and the kon at 250 µM came to 19400 M⁻¹ s⁻¹. On SMYD3, the “XRC: success or failure of crystallization in complex with SMYD3” value (shortened to “XRC: success or failure”) was “(−)”.
Regarding `O=C(O)c1cc(Br)c(O)c(Br)c1` [FL01775], in test [1], the “LE (ligand efficiency)” value was 0.48 (kcal^-1 mol^-1)/HA, binding was characterised by a dissociation constant (Kd) of 56 µM, the kd came to 1.37 s⁻¹ and the kon at 250 µM was determined as 24400 M⁻¹ s⁻¹. Also, at SMYD3, the “XRC: success or failure” value is “(−)”.
Take `CC(C)c1nsc(N)n1` [FL01791]: in test [1], the “LE (ligand efficiency)” value was 0.67 (kcal^-1 mol^-1)/HA; the affinity, expressed as Kd, was 37 µM; the kd was determined as 1.46 s⁻¹; the kon at 250 µM was 39100 M⁻¹ s⁻¹. Also, the “XRC: success or failure” value at SMYD3 is listed as “(+)”.
Consider `COc1ccc(-n2ncc(C(=O)O)c2C)cc1` [FL01833], for which, in test [1], the “LE (ligand efficiency)” value is 0.31 (kcal^-1 mol^-1)/HA, the dissociation constant (Kd) turned out to be 149 µM, the kd came to 1.46 s⁻¹ and the kon at 250 µM was found to be 9780 M⁻¹ s⁻¹. The “XRC: success or failure” value on SMYD3 is recorded as “(−)”.
In the case of `Nc1nc2cccnc2cc1Br` [FL01891], at SMYD3 (apo, native), the “LE (ligand efficiency)” value is 0.52 (kcal^-1 mol^-1)/HA, the dissociation constant (Kd) amounted to 27.4 µM, the kd was determined as 0.70 s⁻¹ and the kon at 250 µM is 25900 M⁻¹ s⁻¹. The “XRC: success or failure” value at SMYD3 was “(−)”.
Take `COc1ccc(Br)cc1N` [FL01938]: in test [1], the “LE (ligand efficiency)” value was 0.53 (kcal^-1 mol^-1)/HA; the affinity, expressed as Kd, was 124 µM; the kd worked out at 1.61 s⁻¹; the kon at 250 µM worked out at 13000 M⁻¹ s⁻¹. Further, the “XRC: success or failure” value at SMYD3 is listed as “(−)”.
For the compound `O=C(O)c1ccnc2ccccc12` [FL02261], on SMYD3 (apo, native), the “LE (ligand efficiency)” value is 0.50 (kcal^-1 mol^-1)/HA, the equilibrium dissociation constant (Kd) stood at 17.4 µM, the kd was determined as 1.09 s⁻¹ and the kon at 250 µM is 62700 M⁻¹ s⁻¹. Besides, the “XRC: success or failure” value at SMYD3 is given as “(−)”.
Take `COc1ccccc1C1OC(=O)CC1C(=O)O` (stereo not shown) [FL03512]: on SMYD3 (apo, native), the “LE (ligand efficiency)” value is reported as 0.35 (kcal^-1 mol^-1)/HA, binding was characterised by a dissociation constant (Kd) of 38 µM, the kd turned out to be 1.61 s⁻¹ and the kon at 250 µM amounted to 42200 M⁻¹ s⁻¹. For the same compound, on SMYD3, the “XRC: success or failure” value is listed as “(−)”.
For `Nc1ccc(S(N)(=O)=O)cc1` [FL04272], at SMYD3 (apo, native), the “LE (ligand efficiency)” value is listed as 0.66 (kcal^-1 mol^-1)/HA, the Kd came out at 4.4 µM, the kd stood at 0.68 s⁻¹ and the kon at 250 µM was 150000 M⁻¹ s⁻¹. In addition, at SMYD3, the “XRC: success or failure” value was “(−)”.
As to `NC(=O)c1cccc(O)c1` [FL08580], on SMYD3 (apo, native), the “LE (ligand efficiency)” value was 0.70 (kcal^-1 mol^-1)/HA, the Kd stood at 7.84 µM, the kd is 0.93 s⁻¹ and the kon at 250 µM was 118000 M⁻¹ s⁻¹. Also, the “XRC: success or failure” value at SMYD3 is listed as “(−)”.
As for `O=S(=O)(c1ccccc1)C1CCNC1` (stereo not shown) [FL08644], in test [1], the “LE (ligand efficiency)” value is on record as 0.51 (kcal^-1 mol^-1)/HA, the Kd amounted to 5.6 µM, the kd turned out to be 0.42 s⁻¹ and the kon at 250 µM is 75200 M⁻¹ s⁻¹. In addition, the “XRC: success or failure” value at SMYD3 is “(−)”.
Consider `CC(C)(C)OC(=O)NC1CCC(CC(=O)O)CC1` (stereo not shown) [FL08758], for which, in test [1], the “LE (ligand efficiency)” value is given as 0.32 (kcal^-1 mol^-1)/HA, the Kd came out at 60 µM, the kd was 2.01 s⁻¹ and the kon at 250 µM worked out at 33300 M⁻¹ s⁻¹. The “XRC: success or failure” value at SMYD3 was “(−)”.
Regarding `Nc1ccnc(-c2cccnc2)n1` [FL08779], in test [1], the “LE (ligand efficiency)” value was 0.48 (kcal^-1 mol^-1)/HA, binding was characterised by a dissociation constant (Kd) of 25 µM, the kd is 1.07 s⁻¹ and the kon at 250 µM was 41900 M⁻¹ s⁻¹. The “XRC: success or failure” value at SMYD3 is listed as “(−)”.
On to `Nc1nnc(-c2cccnc2)s1` [FL08795], for which, on SMYD3 (apo, native), the “LE (ligand efficiency)” value is given as 0.49 (kcal^-1 mol^-1)/HA, binding was put at a Kd of 51.3 µM, the kd came out at 2.04 s⁻¹ and the kon at 250 µM stood at 39700 M⁻¹ s⁻¹. In addition, the “XRC: success or failure” value on SMYD3 is recorded as “(−)”.
